Experiments:
p53 (mutant R175H) = target: T1, p53 (mutant R175H) (Homo sapiens, UniProt P04637, R175H); experiment: CETSA in SK-BR-3 cells (Tm […] to […] °C at […]); format: cell-based
T1 construct: gene TP53; endogenous mutant p53 in SK-BR-3 cells

[1] = target: T2, p53 (mutant R248W DBD-derived peptide pR248W) (Homo sapiens, UniProt P04637, R248W); experiment: intrinsic tryptophan fluorescence quenching titration (also HSQC NMR on R248W DBD and CETSA in MIA PaCa-2 cells); format: binding
T2 construct: gene TP53

[2] = target: T2, p53 (mutant R248W DBD-derived peptide pR248W); experiment: intrinsic tryptophan fluorescence quenching titration (weak; no CETSA stabilization of R248W); format: binding
[3] = target: the molecule itself; experiment: thioflavin T (ThT) amyloid aggregation kinetics; 25 uM peptide alone in PBS with 50 uM ThT, shaking, 37 °C, fluorescence every 5 min; self-assembly into amyloid

For `CCCCOc1nc(C(=O)Nc2ccc(C(=O)Nc3ccc(C(=O)OC)nc3OCCCN)nc2OCCCN)ccc1[N+](=O)[O-]` [ADH-6], which “CETSA in SK-BR-3 cells (Tm 38.8 to 45.1 °C at 5 μM)” value (p53 (mutant R175H)) is on record?
Its value is 45.1 ± 1.2 °C.

And the Kd [1]?
Its Kd is 0.366 ± 0.013 µM.

`COC(=O)c1ccc(NC(=O)c2ccc(NC(=O)c3ccc([N+](=O)[O-])c(OCC(=O)O)n3)c(OCc3ccccc3)n2)c(OCC(=O)O)n1` [ADH-1] was tested. Which Kd [2] did it give?
Its Kd is 15.4 ± 0.8 µM.

B1: pWT, WT p53 DBD-derived peptide (residues 248-273) (peptide, UniProt P04637 248-273, looked up)
peptide: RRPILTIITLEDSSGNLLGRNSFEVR
notes: source: synthetic peptide (Selleck Chemicals, Fmoc; purified in house by reverse-phase HPLC)
Does B1 bind [3]?
Result: binds

Reference: PMC8233319, “Protein mimetic amyloid inhibitor potently abrogates cancer-associated mutant p53 aggregation and restores tumor suppressor function” (Nature Communications, 2021)
